The text below walks through data of patent US20250313572A1, “MACROCYCLIC MCL-1 INHIBITORS AND METHODS OF USE” (AbbVie Inc., priority 2017, published 2025).

The target of one assay is GST-MCL-1 (Homo sapiens, UniProt Q07820). The assay is described as follows: TR-FRET MCL-1 binding assay (competition with probe F-Bak). In short, it runs like this:
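Displacement of F-Bak from GST-MCL-1 is detected by time-resolved FRET with a Tb-labelled anti-GST antibody, with excitation 340/35 nm and emission 520/525 and 495/510 nm, after 2 hours at room temperature. Compounds were titrated in 11 three-fold steps starting at 25 μM final, in buffer alone or in 10% HS.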

Assay [1] concerns AMO-1 human multiple myeloma tumor cell line. The assay is described as follows: AMO-1 cell viability assay (CellTiter-Glo, 24 hours). The settings on record: Homo sapiens. It is filed as cell-based.
Description: Each concentration was tested in duplicate at least 3 independent times. A luminescent signal proportional to the number of viable cells following 24 hours of compound treatment was determined using the CellTiter-Glo® Luminescent Cell Viability Assay according to the manufacturer's recommendations (Promega Corp., Madison, WI). The plates were read in a Perkin Elmer Envision using a Luminescence protocol. To generate dose response curves the data is normalized to percent viability by setting the averages of the staurosporine (10 μM) and DMSO only control wells to 0% and 100% viability respectively.
Assay [2] deals with NCI-H929 human multiple myeloma tumor cell line. Put plainly: NCI-H929 cell viability assay (CellTiter-Glo, 24 hours). The class given is cell-based. The settings on record: Homo sapiens.
Where [3] appears, read: MCL-1 Binding Ki (nM, 10% HS), in the presence of 10% HS (human serum).
Setting [4] is: without HS, read-out: MCL-1 Binding Ki.
Setting [5] is: AMO1, 24 h, read-out: AMO-1 Viability IC50 (μM, 10% FBS), 10% FBS, 24 hours of compound treatment.
The mark [6] stands for this setting: NCI-H929, 24 h, read-out: H929 Viability IC50 (μM, 10% FBS), 10% FBS, 24 hours of compound treatment.

Like-named read-outs stand apart in the source and are kept apart here.

GST-MCL-1, sequence (Q07820 whole entry): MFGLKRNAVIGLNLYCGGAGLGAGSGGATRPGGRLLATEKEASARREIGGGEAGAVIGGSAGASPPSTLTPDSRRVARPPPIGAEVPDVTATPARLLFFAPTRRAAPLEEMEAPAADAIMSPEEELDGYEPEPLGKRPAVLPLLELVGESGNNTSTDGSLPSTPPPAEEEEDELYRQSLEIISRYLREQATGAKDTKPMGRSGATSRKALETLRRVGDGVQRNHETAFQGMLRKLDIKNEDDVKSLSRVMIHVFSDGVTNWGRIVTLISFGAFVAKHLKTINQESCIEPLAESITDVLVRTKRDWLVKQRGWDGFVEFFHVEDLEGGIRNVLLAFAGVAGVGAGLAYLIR

Regarding `Cc1c(Cl)c2c(Cl)c(C)c1-c1c(-c3ccc(F)cc3)sc3ncnc(c13)O[C@@H](C(=O)O)Cc1cc(ccc1OCc1ccnc(-c3ccc(S(=O)(=O)N4CCOCC4)cc3)n1)OC[C@@H](CN1CCN(C)CC1)O2` [Example 145, (7R,16R)-19,23-dichloro-1-(4-fluorophenyl)-20,22-dimethyl-16-[(4-methylpiperazin-1-yl)methyl]-10-({2-[4-(morpholine-4-sulfonyl)phenyl]pyrimidin-4-yl}methoxy)-7,8,15,16-tetrahydro-18,21-etheno-13,9-(metheno)-6,14,17-trioxa-2-thia-3,5-diazacyclononadeca[1,2,3-cd]indene-7-carboxylic Acid], the results for the Ki at GST-MCL-1 (setting [3]) and on GST-MCL-1 (setting [4]) were 0.399 nM and 0.081 nM, respectively. Further, the values for the 50% inhibitory concentration (IC50) in assay [1] (setting [5]) and in assay [2] (setting [6]) were 0.000407 µM and 0.000973 µM, respectively.
With `CO[C@@H]1CO[C@H]2[C@@H]1OC[C@H]2Oc1nccc(COc2ccc3cc2C[C@H](C(=O)O)Oc2ncnc4sc(-c5ccc(F)cc5)c(c24)-c2c(C)c(Cl)c(c(Cl)c2C)O[C@H](CN2CCN(C)CC2)CO3)n1` [Example 146, (7R,16R)-19,23-dichloro-1-(4-fluorophenyl)-10-[(2-{[(3R,3aR,6R,6aR)-6-methoxyhexahydrofuro[3,2-b]furan-3-yl]oxy}pyrimidin-4-yl)methoxy]-20,22-dimethyl-16-[(4-methylpiperazin-1-yl)methyl]-7,8,15,16-tetrahydro-18,21-etheno-13,9-(metheno)-6,14,17-trioxa-2-thia-3,5-diazacyclononadeca[1,2,3-cd]indene-7-carboxylic Acid], the Ki on GST-MCL-1 (setting [3]) stood at 0.041 nM; at GST-MCL-1 (setting [4]), 0.001 nM. For the same compound, the IC50 worked out at 0.00223 µM in assay [1] (setting [5]) and 0.00408 µM in assay [2] (setting [6]).
For the compound `Cc1c(Cl)c2c(Cl)c(C)c1-c1c(-c3ccc(F)cc3)sc3ncnc(c13)O[C@@H](C(=O)O)Cc1cc(ccc1OCc1ccnc(-c3cccc(CN4CCOCC4)c3)n1)OC[C@@H](CN1CCN(C)CC1)O2` [Example 147, (7R,16R)-19,23-dichloro-1-(4-fluorophenyl)-20,22-dimethyl-16-[(4-methylpiperazin-1-yl)methyl]-10-[(2-{3-[(morpholin-4-yl)methyl]phenyl}pyrimidin-4-yl)methoxy]-7,8,15,16-tetrahydro-18,21-etheno-13,9-(metheno)-6,14,17-trioxa-2-thia-3,5-diazacyclononadeca[1,2,3-cd]indene-7-carboxylic Acid], the values for the Ki on GST-MCL-1 (setting [3]) and at GST-MCL-1 (setting [4]) were 0.098 nM and 0.002 nM, respectively. Also, the IC50 in assay [1] (setting [5]) was 0.000204 µM; in assay [2] (setting [6]) it was 0.000162 µM.
For the compound `Cc1c(Cl)c2c(Cl)c(C)c1-c1c(-c3ccc(F)cc3)sc3ncnc(c13)O[C@@H](C(=O)O)Cc1cc(ccc1OCc1ccnc(-c3ccc(CN4CCOCC4)cc3)n1)OC[C@@H](CN1CCN(C)CC1)O2` [Example 148, (7R,16R)-19,23-dichloro-1-(4-fluorophenyl)-20,22-dimethyl-16-[(4-methylpiperazin-1-yl)methyl]-10-[(2-{4-[(morpholin-4-yl)methyl]phenyl}pyrimidin-4-yl)methoxy]-7,8,15,16-tetrahydro-18,21-etheno-13,9-(metheno)-6,14,17-trioxa-2-thia-3,5-diazacyclononadeca[1,2,3-cd]indene-7-carboxylic Acid], the results for the Ki on GST-MCL-1 (setting [3]) and on GST-MCL-1 (setting [4]) were 0.346 nM and 0.034 nM, respectively. In addition, the figures for the half-inhibitory concentration (IC50) in assay [1] (setting [5]) and in assay [2] (setting [6]) were 0.00018 µM and 0.000736 µM, respectively.
`Cc1c(Cl)c2c(Cl)c(C)c1-c1c(-c3ccc(F)cc3)sc3ncnc(c13)O[C@@H](C(=O)O)Cc1cc(ccc1OCc1ccnc(-c3cccc(S(=O)(=O)N4CCOCC4)c3)n1)OC[C@@H](CN1CCN(C)CC1)O2` [Example 149, (7R,16R)-19,23-dichloro-1-(4-fluorophenyl)-20,22-dimethyl-16-[(4-methylpiperazin-1-yl)methyl]-10-({2-[3-(morpholine-4-sulfonyl)phenyl]pyrimidin-4-yl}methoxy)-7,8,15,16-tetrahydro-18,21-etheno-13,9-(metheno)-6,14,17-trioxa-2-thia-3,5-diazacyclononadeca[1,2,3-cd]indene-7-carboxylic Acid]: the Ki at GST-MCL-1 (setting [3]) worked out at 0.14 nM; at GST-MCL-1 (setting [4]), 0.006 nM. In addition, the IC50 in assay [1] (setting [5]) was found to be 0.000363 µM; in assay [2] (setting [6]), 0.0014 µM.
In the case of `Cc1c(Cl)c2c(Cl)c(C)c1-c1c(-c3ccc(F)cc3)sc3ncnc(c13)O[C@@H](C(=O)O)Cc1cc(ccc1OCc1ccnc([C@@H]3CN4CCC[C@H]4CO3)n1)OC[C@@H](CN1CCN(C)CC1)O2` [Example 150, (7R,16R)-19,23-dichloro-1-(4-fluorophenyl)-10-({2-[(3S,8aS)-hexahydro-1H-pyrrolo[2,1-c][1,4]oxazin-3-yl]pyrimidin-4-yl}methoxy)-20,22-dimethyl-16-[(4-methylpiperazin-1-yl)methyl]-7,8,15,16-tetrahydro-18,21-etheno-13,9-(metheno)-6,14,17-trioxa-2-thia-3,5-diazacyclononadeca[1,2,3-cd]indene-7-carboxylic Acid], the inhibitory constant (Ki) came to 0.267 nM on GST-MCL-1 (setting [3]) and 0.043 nM at GST-MCL-1 (setting [4]). The IC50 in assay [1] (setting [5]) was 0.00151 µM; in assay [2] (setting [6]), 0.00253 µM.
As for `Cc1c(Cl)c2c(Cl)c(C)c1-c1c(-c3ccc(F)cc3)sc3ncnc(c13)O[C@@H](C(=O)O)Cc1cc(ccc1OCc1ccnc(-c3ccc(OC(=O)N4CCOCC4)cc3)n1)OC[C@@H](CN1CCN(C)CC1)O2` [Example 151, (7R,16R)-19,23-dichloro-1-(4-fluorophenyl)-20,22-dimethyl-16-[(4-methylpiperazin-1-yl)methyl]-10-[(2-{4-[(morpholine-4-carbonyl)oxy]phenyl}pyrimidin-4-yl)methoxy]-7,8,15,16-tetrahydro-18,21-etheno-9,13-(metheno)-6,14,17-trioxa-2-thia-3,5-diazacyclononadeca[1,2,3-cd]indene-7-carboxylic Acid], the results for the inhibition constant (Ki) at GST-MCL-1 (setting [3]) and on GST-MCL-1 (setting [4]) were 0.325 nM and 0.01 nM, respectively. Moreover, the half-inhibitory concentration (IC50) in assay [1] (AMO1, read-out: AMO-1 Viability IC50 (μM), 10% FBS, 24 hours of compound treatment) worked out at 0.000303 µM; in assay [2] (NCI-H929, read-out: H929 Viability IC50 (μM), 10% FBS, 24 hours of compound treatment), 0.000735 µM.
In the case of `COCCOCCOCCOCc1ccc(-c2nccc(COc3ccc4cc3C[C@H](C(=O)O)Oc3ncnc5sc(-c6ccc(F)cc6)c(c35)-c3c(C)c(Cl)c(c(Cl)c3C)O[C@H](CN3CCN(C)CC3)CO4)n2)cc1COCCOCCOCCOC` [Example 152, (7R,16R)-10-({2-[3,4-bis(2,5,8,11-tetraoxadodecan-1-yl)phenyl]pyrimidin-4-yl}methoxy)-19,23-dichloro-1-(4-fluorophenyl)-20,22-dimethyl-16-[(4-methylpiperazin-1-yl)methyl]-7,8,15,16-tetrahydro-18,21-etheno-13,9-(metheno)-6,14,17-trioxa-2-thia-3,5-diazacyclononadeca[1,2,3-cd]indene-7-carboxylic Acid], the figures for the inhibition constant Ki at GST-MCL-1 (setting [3]) and at GST-MCL-1 (setting [4]) were 0.041 nM and 0.011 nM, respectively. Besides, the results for the half-inhibitory concentration (IC50) in assay [1] (setting [5]) and in assay [2] (setting [6]) were 0.00732 µM and 0.00593 µM, respectively.
For `COCCOCCOCCOCc1ccc(-c2nccc(COc3ccc4cc3C[C@H](C(=O)O)Oc3ncnc5sc(-c6ccc(F)cc6)c(c35)-c3c(C)c(Cl)c(c(Cl)c3C)O[C@H](CN3CCN(C)CC3)CO4)n2)c(OCCOCCOCCOC)c1` [Example 153, (7R,16R)-19,23-dichloro-1-(4-fluorophenyl)-10-({2-[2-{2-[2-(2-methoxyethoxy)ethoxy]ethoxy}-4-(2,5,8,11-tetraoxadodecan-1-yl)phenyl]pyrimidin-4-yl}methoxy)-20,22-dimethyl-16-[(4-methylpiperazin-1-yl)methyl]-7,8,15,16-tetrahydro-18,21-etheno-13,9-(metheno)-6,14,17-trioxa-2-thia-3,5-diazacyclononadeca[1,2,3-cd]indene-7-carboxylic Acid], in that order: 0.023 nM, 0.001 nM, 0.00728 µM and 0.00688 µM.
On the same counts, the results for `CO[C@@H]1CO[C@H]2[C@@H]1OC[C@H]2OCCOc1ccc(-c2nccc(COc3ccc4cc3C[C@H](C(=O)O)Oc3ncnc5sc(-c6ccc(F)cc6)c(c35)-c3c(C)c(Cl)c(c(Cl)c3C)O[C@H](CN3CCN(C)CC3)CO4)n2)cc1` [Example 154, (7R,16R)-19,23-dichloro-1-(4-fluorophenyl)-10-({2-[4-(2-{[(3R,3aR,6R,6aR)-6-methoxyhexahydrofuro[3,2-b]furan-3-yl]oxy}ethoxy)phenyl]pyrimidin-4-yl}methoxy)-20,22-dimethyl-16-[(4-methylpiperazin-1-yl)methyl]-7,8,15,16-tetrahydro-18,21-etheno-13,9-(metheno)-6,14,17-trioxa-2-thia-3,5-diazacyclononadeca[1,2,3-cd]indene-7-carboxylic Acid] are 0.191 nM, 0.018 nM, 0.000698 µM and 0.000643 µM.
For `COCCOCCOCCOCc1cc(OC[C@H]2COCCO2)ccc1-c1nccc(COc2ccc3cc2C[C@H](C(=O)O)Oc2ncnc4sc(-c5ccc(F)cc5)c(c24)-c2c(C)c(Cl)c(c(Cl)c2C)O[C@H](CN2CCN(C)CC2)CO3)n1` [Example 155, (7R,16R)-19,23-dichloro-10-({2-[4-{[(2R)-1,4-dioxan-2-yl]methoxy}-2-(2,5,8,11-tetraoxadodecan-1-yl)phenyl]pyrimidin-4-yl}methoxy)-1-(4-fluorophenyl)-20,22-dimethyl-16-[(4-methylpiperazin-1-yl)methyl]-7,8,15,16-tetrahydro-18,21-etheno-13,9-(metheno)-6,14,17-trioxa-2-thia-3,5-diazacyclononadeca[1,2,3-cd]indene-7-carboxylic Acid], in that order: 0.03 nM, 0.001 nM, 0.000188 µM and 0.000187 µM.
